Measured values published in patent US12090225B2 (Avalyn Pharma Inc., priority 2018, dated 2024).
Read-outs that look alike come from different tables or passages of the source. Marks after values point to notes of the source that are not given here.

Assays:
[1] = test system: α-smooth muscle actin (αSMA); test: Therapeutic silica model: lung α-smooth muscle actin; type: in vivo, C57BL/6 mice; conditions: silica mice
Experimental: (§1) Briefly, acclimated 20-22 g female C57BL/6 mice were administered silica on day 1 by the intratracheal route. On the tenth day, treatment was initiated with either saline or nintedanib. […] Sham and silica control groups received saline either IN or PO. Five animals were enrolled into sham groups, 10 animals enrolled into each PO dose groups, and 13 animals were enrolled into each IN dosing group. […] Body weights were collected throughout the study, with lung weights at termination. Flexivent was performed to determine elastance (lung function; Table 59). Left lungs were extracted, stained as assessed for parenchymal collagen (Table 60) and α-smooth muscle actin (αSMA; Table 61), while right lungs were assessed for interleukin-1β (IL-1β; Table 62). Alpha-smooth muscle actin (αSMA) is a marker of myofibroblast, a key cell type present in fibrotic diseases, including IPF, and is required for production and deposition of collagen.

interleukin-1β (IL-1β) = test: Therapeutic silica model: lung interleukin-1β; type: in vivo, C57BL/6 mice; conditions: silica mice
Experimental: as §1

parenchymal collagen = test: Therapeutic silica model: parenchymal collagen (Picrosirius Red); type: in vivo, C57BL/6 mice; conditions: silica mice
Experimental: as §1, with “[…] collagen was measured by Picrosirius Red (PSR) histopathological analysis. […] Due to the positive impact on other key fibrosis modulators (αSMA, IL-1β; Tables 61 and 62) and that silica-induced fibrosis was well-established prior to start of dosing, it” for “Alpha-smooth muscle actin (αSMA)”, “possible that extending the treatment time would ultimately impact parenchymal” for “a marker of myofibroblast, a key cell type present in fibrotic diseases, including IPF, and is required for production and deposition of”

[2] = Dynamic Vapour Sorption (DVS) hygroscopicity; type: physicochemical; conditions: for DVS mass uptake at 90% RH: 25° C., uptake from input material; for Hygroscopicity: DVS
Experimental: Dynamic Vapour Sorption (DVS). Approximately, 10 mg of sample was placed into a mesh vapour sorption balance pan and loaded into a DVS-1 or DVS Advantage dynamic vapour sorption balance by Surface Measurement Systems. The sample was subjected to a ramping profile from 40-90% relative humidity (RH) at 10% increments, maintaining the sample at each step until a stable weight had been achieved (dm/dt 0.004%, minimum step length 30 minutes, maximum step length 500 minutes) at 25° C. After completion of the sorption cycle, the sample was dried using the same procedure to 0% RH and then a second sorption cycle back to 40% RH. Two cycles were performed. The weight change during the sorption/desorption cycles were plotted, allowing for the hygroscopic nature of the sample to be determined. XRPD analysis was then carried out on any solid retained.

[3] = test system: silica pulmonary fibrosis; test: Therapeutic silica pulmonary fibrosis model: lung function (elastance, Flexivent); type: in vivo, C57BL/6 mice; conditions: silica mice
Experimental: Sham and silica control groups received saline either IN or PO. Five animals were enrolled into sham groups, 10 animals enrolled into each PO dose groups, and 13 animals were enrolled into each IN dosing group. […] Body weights were collected throughout the study, with lung weights at termination. Flexivent was performed to determine elastance (lung function; Table 59). […] The ventilator determined the elastance of each lung as a measure of lung stiffness/fibrosis by inflating the lungs and assessing changes in flow and pressure.

[4] = test system: bleomycin pulmonary fibrosis; test: Therapeutic bleomycin pulmonary fibrosis model: Ashcroft fibrosis score, hydroxyproline; type: in vivo, Sprague Dawley rats
Experimental: Briefly, acclimated Sprague Dawley male rats (c.a. 253 grams at first dosing) were administered bleomycin on days 1, 2, 3 and 6 by the oropharyngeal (OP) route. On the eighth day, treatment was initiated with either saline or nintedanib. […] Ten animals were enrolled into each dosing group. […] All animals were euthanized on day 28d. Body weights were collected throughout the study, with lung weights at termination (Table 55). Left lungs were extracted and measured for hydroxyproline content, while […] were subjected to histology for Ashcroft fibrosis score determination (Table 56).

[5] = Therapeutic bleomycin model: body weight gain, lung weight-to-body weight ratio, tolerability; conditions: bleomycin rats
[6] = Pattern stability screen of potential salts (40° C./75% RH, XRPD); type: physicochemical
Experimental: XRPD analysis was carried out on a PANalytical X'pert pro, scanning the samples between 3 and 35° 20. The material was gently compressed and loaded onto a multi-well plate with Kapton or Mylar polymer film to support the sample.
Primary Salt Screening. […] The solvent systems shown in Table were selected for salt screening. For sulfonic acids MEK was used instead of methanol and acetone:water 50:50 (v/v) was used instead of IPA:water to avoid any potential genotoxic impurities. Ca. […] If the acid was insoluble in the selected solvent, a slurry was used. If the acid was a liquid it was added to the API slurry from a stock solution in the allocated solvent. The mixtures of API/counterion/solvent were temperature cycled between ambient and 40° C. in 4 hour cycles for ca. 3 days. Any solids present were isolated and allowed to dry at ambient conditions, for ca. 30 minutes prior to analysis by XRPD. Where solutions were obtained they were evaporated to obtain solid material.

[7] = Citrate buffer formulation; type: physicochemical
[8] = Solid state and chemical stability of nintedanib HBr and HCl salts through 6 months; type: physicochemical; conditions: for Weight loss: TGA/DSC
Text: Table 24 and Table 25 summarize the total impurities (by HPLC), polymorphic form (by X-ray powder diffraction) and, where applicable, weight loss (by TGA/DSC) for both the HCl and HBr salt forms. […] There were no changes in polymorphic form for both salt forms stored at 25 C/60% RH condition.

[9] = 0.5 mg/mL solubility assessment (filtered/unfiltered); type: physicochemical; conditions: 0.5 mg/mL experiment; for pH: listed as HBr
[10] = oral nintedanib HBr 30 mg/kg BID
[11] = Oral Gavage (PO) 30 mg/kg BID, lung
[12] = 0.5 mg/mL citrate buffer experiments, listed as HBr
[13] = OP 0.05 mg/kg QD, bleomycin rats
[14] = OP 0.25 mg/kg QD, bleomycin rats
[15] = OP 0.375 mg/kg QD, bleomycin rats
[16] = 40° C./75% RH, 2 months, listed as Nintedanib HBr salt
[17] = 40° C./75% RH, 6 months, listed as Nintedanib HBr salt

COC(=O)c1ccc2c(c1)NC(=O)/C2=C(\Nc1ccc(N(C)C(=O)CN2CCN(C)CC2)cc1)c1ccccc1 [Nintedanib, methyl (3Z)-3-[[4-[methyl-[2-(4-methylpiperazin-1-yl)acetyl]amino]anilino]-phenylmethylidene]-2-oxo-1H-indole-6-carboxylate]
lung αSMA levels ([1]; oral and inhaled (IN) nintedanib HBr): both oral and inhaled routes have a substantial impact reducing αSMA lung levels, with the inhaled low and oral doses showing significance | lung IL-1β (interleukin-1β (IL-1β); Inhaled (IN) nintedanib HBr dose groups): dose responsive reduction, with the high dose achieving significance | lung IL-1β (interleukin-1β (IL-1β); [10]): did not reduce IL-1β levels | parenchymal collagen (PSR) (parenchymal collagen; inhalation (IN) or oral nintedanib HBr): not reversed by either inhalation or oral nintedanib treatment | Post-DVS XRPD pattern [2]: remain Pattern 1 | DVS mass uptake at 90% RH [2]: ca. 1.7% | Hygroscopicity [2]: slightly hygroscopic | lung function (elastance) [3, 10]: Oral was also significant in improving lung function | lung fibrosis score (Ashcroft) ([4]; Inhaled (OP) nintedanib HBr dose groups, bleomycin rats): dose responsive reduction in fibrosis score | anti-fibrotic activity compared with oral 60 mg/kg BID ([4]; inhaled high dose (0.375 mg/kg OP QD)): more anti-fibrotic activity as oral | anti-fibrotic activity compared with oral 60 mg/kg BID ([4]; inhaled low dose (0.05 mg/kg OP QD)): less anti-fibrotic activity than oral | anti-fibrotic activity compared with oral 60 mg/kg BID ([4]; inhaled mid-dose (0.25 mg/kg OP QD)): equivalent amount of anti-fibrotic activity as oral | body weight gain ([5]; High dose OP (0.375 mg/kg nintedanib HBr QD)): weight gain equivalent to sham animals | body weight gain ([5]; Oral (PO) 60 mg/kg nintedanib esylate BID): gained about half the weight of control animals

COC(=O)c1ccc2c(c1)NC(=O)/C2=C(\Nc1ccc(N(C)C(=O)CN2CCN(C)CC2)cc1)c1ccccc1 [Nintedanib HBr]
αSMA (%) [1, 11]: 22.8% | αSMA, Delta to Vehicle (%) ([1]; Oral Gavage (PO) 30 mg/kg BID, p < 0.005): −47.7^b % | IL-1β, Delta to Vehicle (%) (interleukin-1β (IL-1β); Oral Gavage (PO) 30 mg/kg BID): −1.5% | IL-1β (interleukin-1β (IL-1β); [11]): 1001.0 pg/mL | Parenchymal Collagen, Delta to Vehicle (%) (parenchymal collagen; Oral Gavage (PO) 30 mg/kg BID): 15.6% | Parenchymal Collagen (parenchymal collagen; Oral Gavage (PO) 30 mg/kg BID, Picrosirius Red): 0.74 | XRPD pattern after 72 hrs 40° C./75% RH ([6]; Initial pattern 3, listed as HBr): 3 | XRPD pattern after 72 hrs 40° C./75% RH ([6]; Initial pattern 4): 4 | XRPD pattern after 72 hrs 40° C./75% RH ([6]; Initial pattern 5): 5 | DVS mass uptake at 90% RH ([2]; listed as HBr salt): ca. 4.5% | Hygroscopicity ([2]; listed as HBr): Hygroscopic | Post-DVS XRPD pattern ([2]; listed as HBr salt): remain unchanged | Elastance, Delta to Vehicle (%) ([3]; Oral Gavage (PO) 30 mg/kg BID): −122.2% | Elastance, Sham Subtracted ([3]; Oral Gavage (PO) 30 mg/kg BID): −0.2 | Initial pH [7, 12]: 4.83 | pH 1 h [7, 12]: 4.82 | attempt to solubilize in citrate buffer ([7]; pH 4.8 buffer, ca. 0.5 mg/mL (Nintedanib)): unsuccessful | Fibrosis Score (SD) (Ashcroft) [4, 13]: 2.7 (0.94) | Fibrosis Score, Delta to Vehicle (%) [4, 13]: −12.5% | Fibrosis Score (SD) (Ashcroft) [4, 14]: 2.1 (0.97) | Fibrosis Score, Delta to Vehicle (%) [4, 14]: 12.5% | Fibrosis Score (SD) (Ashcroft) [4, 15]: 1.9 (0.48) | Fibrosis Score, Delta to Vehicle (%) [4, 15]: 20.8% | Body Weight Gain, Delta to Sham (%) ([5]; OP 0.05 mg/kg QD): −18.4% | Body Weight Gain, Delta to Sham (%) ([5]; OP 0.25 mg/kg QD): −26.7% | Body Weight Gain, Delta to Sham (%) ([5]; OP 0.375 mg/kg QD): −4.8% | Polymorphic form ([8]; 25° C./60 % RH, 1 week): Pattern 1 | Total impurities ([8]; 25° C./60 % RH, 1 week, listed as Nintedanib HBr salt): 0.40% | Polymorphic form ([8]; 25° C./60 % RH, 2 months): Pattern 1 | Total impurities ([8]; 25° C./60 % RH, 2 months, listed as Nintedanib HBr salt): 0.42% | Polymorphic form ([8]; 25° C./60 % RH, 4 weeks): Pattern 1 | Total impurities ([8]; 25° C./60 % RH, 4 weeks, listed as Nintedanib HBr salt): 0.33% | Polymorphic form ([8]; 25° C./60 % RH, 6 months): Pattern 1 | Total impurities ([8]; 25° C./60 % RH, 6 months, listed as Nintedanib HBr salt): 0.47% | Polymorphic form ([8]; 25° C./60 % RH, Initial): Pattern 1 | Weight loss ([8]; 25° C./60 % RH, Initial, listed as Nintedanib HBr salt): 0.23% | Total impurities ([8]; 40° C./75% RH, 1 week, listed as Nintedanib HBr salt): 0.43% | Weight loss ([8]; 40° C./75% RH, 2 months): 4.12% | Polymorphic form [8, 16]: Pattern 4 | Total impurities [8, 16]: 0.41% | Weight loss ([8]; 40° C./75% RH, 4 weeks): 1.33% | Weight loss ([8]; 40° C./75% RH, 6 months): 3.72% | Polymorphic form [8, 17]: Pattern 4 | Total impurities [8, 17]: 0.44% | Weight loss ([8]; 40° C./75% RH, Initial, listed as Nintedanib HBr salt): 0.23% | concentration for filtered sample compared to unfiltered ([9]; listed as HBr salt): 94% | pH ([9]; Filtered): 5.31 | pH ([9]; Unfiltered): 5.12
